Biological target: human APJ receptor (Homo sapiens (Human), UniProt P35414)
Assay: [35S]GTPγS binding assay on membranes from CHO cells stably expressing human APJ receptor
Format: biochemical
Settings: membranes of CHO cells stably expressing human APJ receptor, read-out: Activity hAPJ SPA EC50 IP
Summary of the method: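 Agonist EC50 values come from non-linear regression of mean data from several independent runs. Membranes of CHO cells stably expressing human APJ were incubated 90 min at room temperature with [35S]GTPγS in buffer with optimized GDP, MgCl2 and NaCl, then read on a microplate imager.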

Sequence of human APJ receptor (P35414 whole entry): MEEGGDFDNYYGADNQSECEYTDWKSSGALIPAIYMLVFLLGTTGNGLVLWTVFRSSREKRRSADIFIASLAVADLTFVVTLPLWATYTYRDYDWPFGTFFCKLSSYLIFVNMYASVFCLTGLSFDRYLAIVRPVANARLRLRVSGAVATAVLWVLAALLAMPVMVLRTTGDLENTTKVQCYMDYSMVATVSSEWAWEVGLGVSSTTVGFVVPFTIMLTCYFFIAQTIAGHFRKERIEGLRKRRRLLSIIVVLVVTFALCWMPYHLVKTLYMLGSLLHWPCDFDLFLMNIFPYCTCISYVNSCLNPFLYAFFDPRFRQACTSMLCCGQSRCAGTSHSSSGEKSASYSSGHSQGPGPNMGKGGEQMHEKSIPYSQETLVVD

Structure (SMILES)	EC50 [nM]
COc1cccc(-c2nnc(NS(=O)(=O)[C@@H](C)[C@@H](OC(C)C)c3ncc(C)cn3)n2[C@@H](C)c2ccno2)n1 (single isomer, unassigned) [Example 216.0, (1S,2S)-N-(5-(6-methoxy-2-pyridinyl)-4-((1S)-1-(1,2-oxazol-5-yl)ethyl)-4H-1,2,4-triazol-3-yl)-1-(5-methyl-2-pyrimidinyl)-1-(2-propanyloxy)-2-propanesulfonamide or (1S,2S)-N-(5-(6-methoxy-2-pyridinyl)-4-((1R)-1-(1,2-oxazol-5-yl)ethyl)-4H-1,2,4-triazol-3-yl)-1-(5-methyl-2-pyrimidinyl)-1-(2-propanyloxy)-2-propanesulfonamide]	2.2
COCC(COC)n1c(NS(=O)(=O)[C@@H](C)[C@@H](OC(C)C)c2cnc(C)cn2)nnc1-c1cccc(OC)n1 [Example 105.0]	2.8
[2H]C1([2H])C(n2c(NS(=O)(=O)[C@@H](C)[C@H](OC)c3ncc(Cl)cn3)nnc2-c2cccc(OC)n2)C1([2H])[2H] [Example 148.0, (1R,2S)-1-(5-Chloropyrimidin-2-yl)-N-(4-(cyclopropyl-2,2,3,3-d4)-5-(6-methoxypyridin-2-yl)-4H-1,2,4-triazol-3-yl)-1-methoxypropane-2-sulfonamide]	6.8
COc1cccc(-c2nnc(NS(=O)(=O)[C@@H](C)[C@H](OC)c3ncc(Cl)cn3)n2Cc2cc(C(F)(F)F)no2)n1 [Example 205.0, (1R,2S)-1-(5-chloro-2-pyrimidinyl)-1-methoxy-N-(5-(6-methoxy-2-pyridinyl)-4-((3-(trifluoromethyl)-1,2-oxazol-5-yl)methyl)-4H-1,2,4-triazol-3-yl)-2-propanesulfonamide]	4.5
COc1cccc(-c2nnc(NS(=O)(=O)[C@@H](C)[C@H](C)c3ncc(Cl)cn3)n2[C@H](C)c2cnn(C)c2)n1 (racemic) [Example 297.0, (2S,3R)-3-(5-chloropyrimidin-2-yl)-N-(5-(6-methoxypyridin-2-yl)-4-((R)-1-(1-methyl-1H-pyrazol-4-yl)ethyl)-4H-1,2,4-triazol-3-yl)butane-2-sulfonamide or (2S,3R)-3-(5-chloropyrimidin-2-yl)-N-(5-(6-methoxypyridin-2-yl)-4-((S)-1-(1-methyl-1H-pyrazol-4-yl)ethyl)-4H-1,2,4-triazol-3-yl)butane-2-sulfonamide]	4.3
COc1cccc(-c2nnc(NS(=O)(=O)[C@@H](C)[C@H](OC)c3ncc(Cl)cn3)n2Cc2cc(C)on2)n1 [Example 271.0, (1R,2S)-1-(5-chloropyrimidin-2-yl)-1-methoxy-N-(5-(6-methoxypyridin-2-yl)-4-((5-methylisoxazol-3-yl)methyl)-4H-1,2,4-triazol-3-yl)propane-2-sulfonamide]	5.4
COc1cccc(-c2nnc(NS(=O)(=O)[C@@H](C)[C@H](OC)c3ncc(Cl)cn3)n2Cc2ccon2)n1 [Example 76.0]	3.3
COc1cccc(-c2nnc(NS(=O)(=O)[C@@H](C)[C@@H](OC(C)C)c3ncc(C)cn3)n2C[C@H]2CCCO2)n1 (racemic) [Example 278.0, (1S,2S)-1-isopropoxy-N-(5-(6-methoxypyridin-2-yl)-4-(((R)-tetrahydrofuran-2-yl)methyl)-4H-1,2,4-triazol-3-yl)-1-(5-methylpyrimidin-2-yl)propane-2-sulfonamide or (1S,2S)-1-isopropoxy-N-(5-(6-methoxypyridin-2-yl)-4-(((S)-tetrahydrofuran-2-yl)methyl)-4H-1,2,4-triazol-3-yl)-1-(5-methylpyrimidin-2-yl)propane-2-sulfonamide]	16
COc1cccc(-c2nnc(NS(=O)(=O)[C@@H](C)[C@H](OC)c3ncc(Cl)cn3)n2CC(OC)OC)n1 [Example 77.0]	135
CO[C@H](c1ncc(Cl)cn1)[C@H](C)S(=O)(=O)Nc1nnc(-c2cccnc2)n1C(C1CC1)C1CC1 [Example 112.0]	3.3
CCc1cc(Cn2c(NS(=O)(=O)[C@@H](C)[C@H](OC)c3ncc(Cl)cn3)nnc2-c2cncc(C)c2)on1 [Example 293.0, (1R,2S)-1-(5-chloropyrimidin-2-yl)-N-(4-((3-ethylisoxazol-5-yl)methyl)-5-(5-methylpyridin-3-yl)-4H-1,2,4-triazol-3-yl)-1-methoxypropane-2-sulfonamide]	200
COc1cccc(-c2nnc(NS(=O)(=O)[C@@H](C)[C@H](OC)c3cnc(C)cn3)n2Cc2cnoc2)n1 [Example 188.0, (1R,2S)-N-(4-(isoxazol-4-ylmethyl)-5-(6-methoxypyridin-2-yl)-4H-1,2,4-triazol-3-yl)-1-methoxy-1-(5-methylpyrazin-2-yl)propane-2-sulfonamide]	1400
CC[C@H]([C@@H]1CCCCO1)n1c(NS(=O)(=O)[C@@H](C)[C@H](OC)c2ncc(C)cn2)nnc1-c1cccc(OC)n1 (single isomer, unassigned) [Example 330.0]	0.23
COc1cccc(-c2nnc(NS(=O)(=O)[C@@H](C)[C@H](OC)c3ncc(Cl)cn3)n2[C@@H](C)c2ncn(C)n2)n1 (single isomer, unassigned) [Example 236.0, (1R,2S)-1-(5-chloro-2-pyrimidinyl)-1-methoxy-N-(5-(6-methoxy-2-pyridinyl)-4-((1R)-1-(1-methyl-1H-1,2,4-triazol-3-yl)ethyl)-4H-1,2,4-triazol-3-yl)-2-propanesulfonamide or (1R,2S)-1-(5-chloro-2-pyrimidinyl)-1-methoxy-N-(5-(6-methoxy-2-pyridinyl)-4-((1S)-1-(1-methyl-1H-1,2,4-triazol-3-yl)ethyl)-4H-1,2,4-triazol-3-yl)-2-propanesulfonamide]	7.2
COc1cccc(-c2nnc(NS(=O)(=O)[C@@H](C)[C@H](OC)c3ncc(Cl)cn3)n2CC2CCOC2)n1 (single isomer, unassigned) [Example 286.0, (1R,2S)-1-(5-chloropyrimidin-2-yl)-1-methoxy-N-(5-(6-methoxypyridin-2-yl)-4-(((R)-tetrahydrofuran-3-yl)methyl)-4H-1,2,4-triazol-3-yl)propane-2-sulfonamide or (1R,2S)-1-(5-chloropyrimidin-2-yl)-1-methoxy-N-(5-(6-methoxypyridin-2-yl)-4-(((S)-tetrahydrofuran-3-yl)methyl)-4H-1,2,4-triazol-3-yl)propane-2-sulfonamide]	55
COc1cccc(-c2nnc(NS(=O)(=O)[C@@H](C)[C@H](OC)c3ncc(Cl)cn3)n2[C@H](C)c2cncs2)n1 (single isomer, unassigned) [Example 347.0, (1R,2S)-1-(5-chloropyrimidin-2-yl)-1-methoxy-N-(5-(6-methoxypyridin-2-yl)-4-((R)-1-(thiazol-5-yl)ethyl)-4H-1,2,4-triazol-3-yl)propane-2-sulfonamide or (1R,2S)-1-(5-chloropyrimidin-2-yl)-1-methoxy-N-(5-(6-methoxypyridin-2-yl)-4-((S)-1-(thiazol-5-yl)ethyl)-4H-1,2,4-triazol-3-yl)propane-2-sulfonamide]	0.48
CO[C@H](c1ncc(Cl)cn1)[C@H](C)S(=O)(=O)Nc1nnc(-c2cncc(C)c2)n1C1CC1 [Example 149.0, (1R,2S)-1-(5-Chloropyrimidin-2-yl)-N-(4-cyclopropyl-5-(5-methylpyridin-3-yl)-4H-1,2,4-triazol-3-yl)-1-methoxypropane-2-sulfonamide]	36
COc1cccc(-c2nnc(NS(=O)(=O)[C@@H](C)[C@H](C)c3ncc(Cl)cn3)n2[C@@H](C)c2ccon2)n1 (racemic) [Example 267.0, (2S,3R)-3-(5-chloropyrimidin-2-yl)-N-(4-((R)-1-(isoxazol-3-yl)ethyl)-5-(6-methoxypyridin-2-yl)-4H-1,2,4-triazol-3-yl)butane-2-sulfonamide or (2S,3R)-3-(5-chloropyrimidin-2-yl)-N-(4-((S)-1-(isoxazol-3-yl)ethyl)-5-(6-methoxypyridin-2-yl)-4H-1,2,4-triazol-3-yl)butane-2-sulfonamide]	4.2
COc1cccc(-c2nnc(NS(=O)(=O)[C@@H](C)[C@H](OC)c3ncc(Cl)cn3)n2CCC(N)=O)n1 [Example 45.0]	60
COc1cccc(-c2nnc(NS(=O)(=O)[C@@H](C)[C@H](OC)c3ncc(Cl)cn3)n2CC2CCOC2)n1 (single isomer, unassigned) [Example 285.0, (1R,2S)-1-(5-chloropyrimidin-2-yl)-1-methoxy-N-(5-(6-methoxypyridin-2-yl)-4-(((R)-tetrahydrofuran-3-yl)methyl)-4H-1,2,4-triazol-3-yl)propane-2-sulfonamide or (1R,2S)-1-(5-chloropyrimidin-2-yl)-1-methoxy-N-(5-(6-methoxypyridin-2-yl)-4-(((S)-tetrahydrofuran-3-yl)methyl)-4H-1,2,4-triazol-3-yl)propane-2-sulfonamide]	65
CCc1cc(Cn2c(NS(=O)(=O)[C@@H](C)[C@@H](OC(C)C)c3ncc(C)cn3)nnc2-c2cccc(OC)n2)on1 [Example 294.0, (1S,2S)-N-(4-((3-ethylisoxazol-5-yl)methyl)-5-(6-methoxypyridin-2-yl)-4H-1,2,4-triazol-3-yl)-1-isopropoxy-1-(5-methylpyrimidin-2-yl)propane-2-sulfonamide]	5.4
COc1cccc(-c2nnc(NS(=O)(=O)[C@@H](C)[C@H](C)c3ncc(Cl)cn3)n2[C@@H](C)c2ncnn2C)n1 (single isomer, unassigned) [Example 251.0, (2S,3R)-3-(5-chloro-2-pyrimidinyl)-N-(5-(6-methoxy-2-pyridinyl)-4-((1R)-1-(1-methyl-1H-1,2,4-triazol-5-yl)ethyl)-4H-1,2,4-triazol-3-yl)-2-butanesulfonamide or (2S,3R)-3-(5-chloro-2-pyrimidinyl)-N-(5-(6-methoxy-2-pyridinyl)-4-((1S)-1-(1-methyl-1H-1,2,4-triazol-5-yl)ethyl)-4H-1,2,4-triazol-3-yl)-2-butanesulfonamide]	1.7

Source: patent US10689367B2, “Triazole pyridyl compounds as agonists of the APJ receptor” (AMGEN INC., priority 2016, dated 2020)
